Test results published in ChEMBL document CHEMBL3885881, “DrugMatrix”.

Species on record: Rattus norvegicus
Assay: DrugMatrix - Regimen: Daily Repeat
Assay type: toxicity, organism-based, Sprague-Dawley
Set-up: regimen Daily Repeat, gender Male, age 6-8 weeks
Conditions: in vivo, po, route oral GAVAGE, vehicle 100 % WATER; for ABSOLUTE BASOPHIL / ABSOLUTE EOSINOPHIL / ABSOLUTE LYMPHOCYTE / ABSOLUTE MONOCYTE / ABSOLUTE SEGMENTED NEUTROPHIL / BASOPHIL / EOSINOPHIL / ERYTHROCYTE COUNT / HEMATOCRIT / HEMOGLOBIN / LEUKOCYTE COUNT / LYMPHOCYTE / MEAN CORPUSCULAR HEMOGLOBIN / MEAN CORPUSCULAR HEMOGLOBIN CONCENTRATION / MEAN CORPUSCULAR VOLUME / MONOCYTE / NEUTROPHIL / NUCLEATED RED BLOOD CELLS / PLATELET COUNT: tissue Blood; for ALANINE AMINOTRANSFERASE / ALBUMIN / ALKALINE PHOSPHATASE / ASPARTATE AMINOTRANSFERASE / BLOOD UREA NITROGEN / CARBON DIOXIDE / CHLORIDE / CHOLESTEROL / CREATINE PHOSPHOKINASE / CREATININE / GLUCOSE / LACTATE DEHYDROGENASE / LIPASE / PHOSPHORUS / POTASSIUM / SODIUM / TOTAL BILIRUBIN / TOTAL PROTEIN / URIC ACID: tissue Plasma
[1] = 0 mg/kg, 72 h, dose level Control, time 3 day
[2] = 0 mg/kg, 120 h, dose level Control, time 5 day
[3] = 500 mg/kg, 72 h, dose level Low, time 3 day

SMILES: NCCCCCC(=O)O [AMINOCAPROIC ACID]
- ABSOLUTE BASOPHIL [1]: 0 CELLS/uL
- ABSOLUTE EOSINOPHIL [1]: 40 CELLS/uL
- ABSOLUTE LYMPHOCYTE [1]: 13599.5 CELLS/uL
- ABSOLUTE MONOCYTE [1]: 239.33 CELLS/uL
- ABSOLUTE SEGMENTED NEUTROPHIL [1]: 1021.17 CELLS/uL
- BASOPHIL [1]: 0%
- EOSINOPHIL [1]: 0.33%
- ERYTHROCYTE COUNT [1]: 5.71 x10E6/uL
- HEMATOCRIT [1]: 36.35%
- HEMOGLOBIN [1]: 14.05 G/DL
- LEUKOCYTE COUNT [1]: 14.9 x10E3/uL
- LYMPHOCYTE [1]: 91%
- MEAN CORPUSCULAR HEMOGLOBIN [1]: 24.62 pg
- MEAN CORPUSCULAR HEMOGLOBIN CONCENTRATION [1]: 38.65 G/DL
- MEAN CORPUSCULAR VOLUME [1]: 63.7 fL
- MONOCYTE [1]: 1.5%
- NEUTROPHIL [1]: 7.17%
- NUCLEATED RED BLOOD CELLS [1]: 0.33 /100WBC
- PLATELET COUNT [1]: 1225.5 x10E3/uL
- ALANINE AMINOTRANSFERASE [1]: 48.5 u/L
- ALBUMIN [1]: 4.18 G/DL
- ALKALINE PHOSPHATASE [1]: 390.83 u/L
- ASPARTATE AMINOTRANSFERASE [1]: 89 u/L
- BLOOD UREA NITROGEN [1]: 14.83 mg/dL
- CARBON DIOXIDE [1]: 24.83 mmol/L
- CHLORIDE [1]: 100.83 MEQ/L
- CHOLESTEROL [1]: 72.5 mg/dL
- CREATINE PHOSPHOKINASE [1]: 503 u/L
- CREATININE [1]: 0.2 mg/dL
- GLUCOSE [1]: 163 mg/dL
- LACTATE DEHYDROGENASE [1]: 316.83 u/L
- LIPASE [1]: 9.83 u/L
- PHOSPHORUS [1]: 11.57 mg/dL
- POTASSIUM [1]: 6.16 MEQ/L
- SODIUM [1]: 142.62 MEQ/L
- TOTAL BILIRUBIN [1]: 0.2 mg/dL
- TOTAL PROTEIN [1]: 5.8 G/DL
- URIC ACID [1]: 1.65 mg/dL
- ABSOLUTE BASOPHIL [2]: 0 CELLS/uL
- ABSOLUTE EOSINOPHIL [2]: 21 CELLS/uL
- ABSOLUTE LYMPHOCYTE [2]: 14288.5 CELLS/uL
- ABSOLUTE MONOCYTE [2]: 205.33 CELLS/uL
- ABSOLUTE SEGMENTED NEUTROPHIL [2]: 968.5 CELLS/uL
- BASOPHIL [2]: 0%
- EOSINOPHIL [2]: 0.17%
- ERYTHROCYTE COUNT [2]: 5.83 x10E6/uL
- HEMATOCRIT [2]: 36.53%
- HEMOGLOBIN [2]: 14.4 G/DL
- LEUKOCYTE COUNT [2]: 15.48 x10E3/uL
- LYMPHOCYTE [2]: 92%
- MEAN CORPUSCULAR HEMOGLOBIN [2]: 24.72 pg
- MEAN CORPUSCULAR HEMOGLOBIN CONCENTRATION [2]: 39.43 G/DL
- MEAN CORPUSCULAR VOLUME [2]: 62.68 fL
- MONOCYTE [2]: 1.33%
- NEUTROPHIL [2]: 6.5%
- NUCLEATED RED BLOOD CELLS [2]: 0.17 /100WBC
- PLATELET COUNT [2]: 1280.5 x10E3/uL
- ALANINE AMINOTRANSFERASE [2]: 50 u/L
- ALBUMIN [2]: 4.28 G/DL
- ALKALINE PHOSPHATASE [2]: 380.17 u/L
- ASPARTATE AMINOTRANSFERASE [2]: 82.67 u/L
- BLOOD UREA NITROGEN [2]: 15.33 mg/dL
- CARBON DIOXIDE [2]: 27.17 mmol/L
- CHLORIDE [2]: 100.33 MEQ/L
- CHOLESTEROL [2]: 60.67 mg/dL
- CREATINE PHOSPHOKINASE [2]: 441.5 u/L
- CREATININE [2]: 0.16 mg/dL
- GLUCOSE [2]: 146 mg/dL
- LACTATE DEHYDROGENASE [2]: 189.33 u/L
- LIPASE [2]: 9.17 u/L
- PHOSPHORUS [2]: 11.67 mg/dL
- POTASSIUM [2]: 6.86 MEQ/L
- SODIUM [2]: 142.33 MEQ/L
- TOTAL BILIRUBIN [2]: 0.2 mg/dL
- TOTAL PROTEIN [2]: 6.12 G/DL
- URIC ACID [2]: 1.82 mg/dL
- ABSOLUTE BASOPHIL [3]: 0 CELLS/uL
- ABSOLUTE EOSINOPHIL [3]: 0 CELLS/uL
- ABSOLUTE LYMPHOCYTE [3]: 14688.33 CELLS/uL
- ABSOLUTE MONOCYTE [3]: 111.67 CELLS/uL
- ABSOLUTE SEGMENTED NEUTROPHIL [3]: 1900 CELLS/uL
- BASOPHIL [3]: 0%
- EOSINOPHIL [3]: 0%
- ERYTHROCYTE COUNT [3]: 6.18 x10E6/uL
- HEMATOCRIT [3]: 38.13%
- HEMOGLOBIN [3]: 14.43 G/DL
- LEUKOCYTE COUNT [3]: 16.7 x10E3/uL
- LYMPHOCYTE [3]: 87.67%
- MEAN CORPUSCULAR HEMOGLOBIN [3]: 23.37 pg
- MEAN CORPUSCULAR HEMOGLOBIN CONCENTRATION [3]: 37.87 G/DL
- MEAN CORPUSCULAR VOLUME [3]: 61.8 fL
- MONOCYTE [3]: 0.67%
- NEUTROPHIL [3]: 11.67%
- NUCLEATED RED BLOOD CELLS [3]: 0.33 /100WBC
- PLATELET COUNT [3]: 1460 x10E3/uL
- ALANINE AMINOTRANSFERASE [3]: 62 u/L
- ALBUMIN [3]: 4.23 G/DL
- ALKALINE PHOSPHATASE [3]: 425.33 u/L
- ASPARTATE AMINOTRANSFERASE [3]: 90.33 u/L
- BLOOD UREA NITROGEN [3]: 16.67 mg/dL
- CARBON DIOXIDE [3]: 27.67 mmol/L
- CHLORIDE [3]: 100.33 MEQ/L
- CHOLESTEROL [3]: 70 mg/dL
- CREATINE PHOSPHOKINASE [3]: 270.33 u/L
- CREATININE [3]: 0.23 mg/dL
- GLUCOSE [3]: 150.67 mg/dL
- LACTATE DEHYDROGENASE [3]: 189.67 u/L
- LIPASE [3]: 9.33 u/L
- PHOSPHORUS [3]: 11.87 mg/dL
- POTASSIUM [3]: 7.16 MEQ/L
- SODIUM [3]: 144.07 MEQ/L
- TOTAL BILIRUBIN [3]: 0.27 mg/dL
- TOTAL PROTEIN [3]: 5.93 G/DL
- URIC ACID [3]: 1.67 mg/dL
